According to patent US20250090699A1, “FAP TARGETING CYCLIC PEPTIDES AND CONJUGATES THEREOF” (Novartis AG, priority 2023, published 2025):
Starred links: 1 amine or outer side, 2 acyl side, 3 side chain; linkers in the order of their positions; H or OH if unused. Non-standard residues stand in square brackets, D forms with d. Residues, ends and D or L forms follow the SMILES beside them. Groups on a side chain read outwards from the residue. *: point of attachment. F(4amPEG2NHDOTA-Lu) = lutetium complex of (S)-2,2',2''-(10-(1-(4-(2-amino-2-carboxyethyl)phenyl)-3,12-dioxo-5,8-dioxa-2,11-diazatridecan-13-yl)-1,4,7,10-tetraazacyclododecane-1,4,7-triyl)triacetic acid (Phe with 4-aminomethyl-PEG2-DOTA-Lu), O=C([O-])CN1CCN(CC(=O)[O-])CCN(CC(=O)NCCOCCOCC(=O)NCc2ccc(C[C@H](N[*:1])C(=O)[*:2])cc2)CCN(CC(=O)[O-])CC1.[Lu+3]; Q(Pyrro(2CN4F2)) = 2-amino-5-(2-cyano-4,4-difluoropyrrolidin-1-yl)-5-oxopentanoic acid; COpipzaa = 4-(carboxymethyl)piperazine-1-carbonyl, O=C(O)CN1CCN(C(=O)*)CC1; Nicotinoyl(6-NMe3+) = C[N+](C)(C)c1ccc(C(=O)*)cn1; Phe(4-CH2NH2) = NCc1ccc(C[C@H](N)C(=O)O)cc1; Piperazinyl(4-CH2COOH) = O=C(O)CN1CCN(*)CC1; AEF = NCCOc1ccc(C[C@H](N)C(=O)O)cc1; NMeF = CN[C@@H](Cc1ccccc1)C(=O)O; Ahp(2) = CCCCC[C@H](N)C(=O)O; hSer = N[C@@H](CCO)C(=O)O; AEEA = NCCOCCOCC(=O)O; CO = O=C([*:1])[*:2]; Propyl = CCC*

Tests used:
mouse FAP [1] = biological target: T1, mouse FAP (Mus musculus, UniProt P97321); assay: Surface plasmon resonance (SPR) for peptide affinity, mouse FAP; assay type: binding
T1 construct: biotinylated His, Avi tag, mouse FAP (26-761, FAP-M82Q5); His; Avi tag (biotinylated); purchased AcroBiosystems FAP-M82Q5
T1 sequence (P97321 26-761): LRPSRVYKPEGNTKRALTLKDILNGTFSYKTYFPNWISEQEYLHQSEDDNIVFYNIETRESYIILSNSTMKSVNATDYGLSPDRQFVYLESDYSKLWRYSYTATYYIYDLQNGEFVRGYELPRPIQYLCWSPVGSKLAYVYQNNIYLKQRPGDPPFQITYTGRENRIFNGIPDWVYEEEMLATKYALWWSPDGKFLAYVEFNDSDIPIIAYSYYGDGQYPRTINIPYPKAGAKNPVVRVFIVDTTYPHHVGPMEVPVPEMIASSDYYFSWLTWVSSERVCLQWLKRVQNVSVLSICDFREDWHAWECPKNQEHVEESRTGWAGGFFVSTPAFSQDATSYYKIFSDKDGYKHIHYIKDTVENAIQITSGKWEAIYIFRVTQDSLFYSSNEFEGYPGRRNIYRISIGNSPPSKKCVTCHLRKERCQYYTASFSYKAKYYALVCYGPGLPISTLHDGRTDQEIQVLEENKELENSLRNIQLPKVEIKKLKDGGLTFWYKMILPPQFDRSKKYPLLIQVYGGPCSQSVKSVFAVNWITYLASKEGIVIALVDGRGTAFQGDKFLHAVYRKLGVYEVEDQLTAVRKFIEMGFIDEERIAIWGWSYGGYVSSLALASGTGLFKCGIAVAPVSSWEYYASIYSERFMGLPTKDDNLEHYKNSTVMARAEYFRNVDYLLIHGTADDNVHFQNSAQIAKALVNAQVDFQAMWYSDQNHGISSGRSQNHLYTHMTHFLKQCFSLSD
How it was run: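 KD values come from a 1:1 kinetic fit of single-cycle SPR data: 8 peptide concentrations, 25 °C, 30 μL/min, HEPES-buffered saline pH 7.6 with 2% DMSO. Targets were His/Avi-tagged human (26-760) or mouse (26-761) FAP, amine-coupled to CM5 or held on a CAPture chip.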

mouse FAP [2] = biological target: T1, mouse FAP; assay: Enzymatic FAP competition assay (Z-Gly-Pro-AMC fluorescence), mouse FAP; assay type: biochemical; settings: read-out: m. FAP, Enz., IC50
How it was run: (§1)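 IC50 values come from curve fitting of duplicate % inhibition data on AMC fluorescence (ex 380, em 460 nm) after 4 h at 22-24° C with 50 μM Z-Gly-Pro-AMC. Beforehand, peptides up to 1 μM (14 levels) sat 24 h with 0.01 nM human (26-760) or mouse (26-761) tagged FAP in phosphate buffer pH 7.5, NaCl, Tween20, 1% DMSO.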

human FAP [3] = biological target: T2, human FAP (Homo sapiens, UniProt Q12884); assay: Surface plasmon resonance (SPR) for peptide affinity, human FAP; assay type: binding; settings: read-out: h. FAP, SPR, KD
T2 construct: the biotinylated His, Avi tag, human FAP (26-760, FAP-H82Q6); His; Avi tag (biotinylated); purchased AcroBiosystems FAP-H82Q6
T2 sequence (Q12884 26-760): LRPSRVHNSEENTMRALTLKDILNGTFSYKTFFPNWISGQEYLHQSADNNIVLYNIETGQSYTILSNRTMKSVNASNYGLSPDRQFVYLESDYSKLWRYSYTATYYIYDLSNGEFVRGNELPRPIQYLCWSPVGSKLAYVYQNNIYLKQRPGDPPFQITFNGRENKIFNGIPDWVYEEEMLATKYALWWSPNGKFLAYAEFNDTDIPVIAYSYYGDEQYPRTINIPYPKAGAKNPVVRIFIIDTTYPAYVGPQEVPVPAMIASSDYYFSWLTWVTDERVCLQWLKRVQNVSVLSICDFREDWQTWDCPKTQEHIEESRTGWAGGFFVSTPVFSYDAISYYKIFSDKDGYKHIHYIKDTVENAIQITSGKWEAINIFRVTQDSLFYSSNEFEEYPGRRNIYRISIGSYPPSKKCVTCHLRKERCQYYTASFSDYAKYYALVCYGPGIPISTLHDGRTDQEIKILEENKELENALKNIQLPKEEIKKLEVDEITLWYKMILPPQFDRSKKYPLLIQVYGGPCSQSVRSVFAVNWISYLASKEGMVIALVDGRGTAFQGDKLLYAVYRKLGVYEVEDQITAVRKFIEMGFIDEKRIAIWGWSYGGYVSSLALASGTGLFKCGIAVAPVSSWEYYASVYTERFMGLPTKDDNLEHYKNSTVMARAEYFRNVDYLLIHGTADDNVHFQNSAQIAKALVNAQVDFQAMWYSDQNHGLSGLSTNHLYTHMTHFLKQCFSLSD
Protocol: Peptide affinities (KD) were determined by SPR using a Biacore™ 8K device (Cytiva) towards the following proteins: biotinylated His, Avi tag, human FAP (26-760, FAP-H82Q6), biotinylated His, Avi tag, mouse FAP (26-761, FAP-M82Q5), His tag, human DPP4 (34-766, DP4-H82E3), all purchased from AcroBiosystems and His tag, mouse DPP4 (29-760, 954-SE) from R&D Systems. The FAP proteins and their homologous were diluted to a concentration of 2 μg/mL into acetate buffer pH 5.5, then immobilized onto a CM5 sensorchip (Cytiva, BR-1005-30) to reach a response around 2000 R U. The running buffer HBS-EP+pH 7.6 (20× from Teknova CAT. No: H8022) contained 10 mM HEPES pH 7.6, 150 mM NaCl, 3 mM EDTA, 0.05% Tween20 and 2% DMSO. Experiments were carried out at 25° C. using a flow rate of 30 μL/min. Compounds were tested in single cycle kinetic mode at 8 different concentrations. Curve fitting was performed using the Biacore™ 8K evaluation software. The sensorgrams were fitted by applying a 1:1 binding model to calculate kinetic rate constants and equilibrium dissociation constants (KD).
For this assay, the setup had the same conditions (flow rate, running buffer, peptide dilution) as described above for the CM5 method. The oligo CAP reagent obtained in the CAPture Kit (Ref. 28920234) was 1/5 diluted into running buffer and used with a contact time of 300 s at a flow rate of 2 μL/min. The human and mouse FAP constructs described above were used (from AcroBiosystems or produced in house). The FAP proteins were diluted to a concentration of 2 μg/mL into acetate pH 5.5, 0.05% Tween20 and used with a contact time of 600 s at a flow rate of 10 μL/min. The peptides were tested with an association time of 280 s followed by a dissociation time of 3000 s at a flow rate of 30 μL/min. The regeneration was done using the regeneration solution (8 M guanidine-HCl, 1 M NaOH) as obtained with a contact time of 270 s at a flow rate of 10 μL/min. […] The compounds marked with an asterisk were tested against human and mouse DDP4.

human FAP [4] = biological target: T2, human FAP; assay: Enzymatic FAP competition assay (Z-Gly-Pro-AMC fluorescence), human FAP; assay type: biochemical; settings: read-out: h. FAP, Enz., IC50
How it was run: as §1

Kd (mouse FAP [1]) [nM]	IC50 (mouse FAP [2]) [nM]	Kd (human FAP [3]) [nM]	IC50 (human FAP [4]) [nM]	Compound
0.55	1.2	0.27	0.239	CCCCC[C@@H]1NC(=O)[C@H](Cc2ccc(OCCN)cc2)NC(=O)[C@H](Cc2ccccc2)N(C)C(=O)CNC(=O)[C@@H]2CCCN2C(=O)[C@H]2CCCN2C(=O)[C@H](CC(=O)O)NC(=O)[C@H](Cc2ccc(O)cc2)NC(=O)CNC(=O)[C@H](Cc2c[nH]c3ccccc23)NC1=O [Example A32, Pro-Gly-NMePhe-F(4OEtNH2)-Ahp-Trp-Gly-Tyr-Asp-D-Pro] (cyclo(G[NMeF][AEF][Ahp(2)]WGYD[dP]P))
< 0.04	0.031	< 0.018	0.018	Gly-Gly-NMePhe-F(4amPEG2NHDOTA-Lu)-Q(Pyrro(2CN4F2))-Trp-Gly-K(COpipzaa)-Asp-D-Pro (cyclo(GG[NMeF][F(4amPEG2NHDOTA-Lu)][Q(Pyrro(2CN4F2))]WGK(COpipzaa)D[dP]); also: Lu complex) [Example C19]
< 0.017	0.017	< 0.007	0.006	CCCOCC[C@@H]1NC(=O)[C@H](Cc2ccc(CNC(=O)COCCOCCNC(=O)c3ccc([N+](C)(C)C)nc3)cc2)NC(=O)[C@H](Cc2ccccc2)N(C)C(=O)CNC(=O)CNC(=O)[C@H]2CCCN2C(=O)[C@H](CC(=O)O)NC(=O)[C@H](CCCCNC(=O)N2CCN(CC(=O)O)CC2)NC(=O)CNC(=O)[C@H](Cc2c[nH]c3ccccc23)NC1=O [Example C58] (cyclo(D[dP]GG[NMeF][Phe(4-CH2NH2)]([AEEA-Nicotinoyl(6-NMe3+)])[hSer](Propyl)WGK([CO-Piperazinyl(4-CH2COOH)])))
0.024	0.011	< 0.011	0.004	Gly-Gly-NMePhe-F(4amPEG2NHDOTA-Lu)-Ahp-Trp-Gly-K(COpipzaa)-Asp-D-Pro (cyclo(GG[NMeF][F(4amPEG2NHDOTA-Lu)][Ahp(2)]WGK(COpipzaa)D[dP]); also: Lu complex) [Example C13]
